The source made the active and inactive calls. The calls are words filed in the database; no cut-off is given here.
Legend:
[1] = test system: Bacillus subtilis; test: Bactericidal activity against Bacillus subtilis; format: functional, organism-based
[2] = test system: Escherichia coli; test: Antibacterial activity against Escherichia coli after 24 hr by serial dilution technique; format: functional
[3] = test system: Candida albicans; test: Antifungal activity against Candida albicans after 2 days by serial dilution technique; format: functional
[4] = test system: Bacillus subtilis; test: Antibacterial activity against Bacillus subtilis after 24 hr by serial dilution technique; format: functional
[5] = test system: Aspergillus niger; test: Antifungal activity against Aspergillus niger after 7 days by serial dilution technique; format: functional
[6] = test system: Escherichia coli; test: Bactericidal activity against Escherichia coli; format: functional, organism-based
[7] = test system: Staphylococcus aureus; test: Antibacterial activity against Staphylococcus aureus after 24 hr by serial dilution technique; format: functional
[8] = test system: Candida albicans; test: Fungicidal activity against Candida albicans; format: functional, organism-based
[9] = test system: Aspergillus niger; test: Fungicidal activity against Aspergillus niger after 7 days by serial dilution technique; format: functional, organism-based
[10] = test system: Staphylococcus aureus; test: Bactericidal activity against Staphylococcus aureus; format: functional, organism-based

SMILES	Activity [1]	-logMIC [2]	-logMIC [3]	-logMIC [4]	-logMIC [5]	Activity [6]	-logMIC [7]	Activity [8]	Activity [9]	Activity [10]
Cc1ccc(NC(=O)c2ccccc2N)c(C)c1	Active	1.28	1.28	2.19	1.28	Active	1.28	Active	Active	Active
CCOC(=O)c1ccccc1N [ETHYL ANTHRANILATE]	Active	1.72	1.12	1.91	1.72	Active	1.12	Active	Active	Active
Nc1ccccc1C(=O)Nc1cccc(Cl)c1	Active	1.6	1.3	2.2	1.3	Active	1.3	Active	Active	Active
CCCCOC(=O)c1ccccc1N [BUTYL 2-AMINOBENZOATE]	Active	1.79	1.19	2.09	1.3	Active	1.2	Active	Active	Active
Nc1ccccc1C(=O)Nc1ccccc1	Active	1.23	1.23	2.13	1.23	Active	1.23	Active	Active	Active
CCCCNC(=O)c1ccccc1N	Active	1.19	1.19	1.49	1.2	Active	1.2	Active	Active	Active
CCCNC(=O)c1ccccc1N	Active	1.46	1.12	2.06	1.15	Active	1.15	Active	Active	Active
Nc1ccccc1C(=O)Oc1cccc2cccnc12	Active	1.8	1.63	1.93	1.63	Active	1.93	Active	Active	Active
NC(=O)c1ccccc1N [ANTHRANILAMIDE]	Active	1.04	1.04	1.94	1.64	Active	1.04	Active	Active	Active
COc1ccccc1NC(=O)c1ccccc1N	Active	1.2	1.29	1.59	1.29	Active	1.29	Active	Active	Active
CN(C)C(=O)c1ccccc1N	Active	1.42	0.82	2.02	1.42	Active	0.82	Active	Active	Active
Cc1ccccc1NC(=O)c1ccccc1N	Active	1.26	1.56	1.86	1.56	Active	1.26	Active	Active	Active
CC(C)CCOC(=O)c1ccccc1N [ISOPENTYL 2-AMINOBENZOATE]	Active	1.82	1.22	2.12	1.22	Active	1.22	Active	Active	Active
Cc1cccc(NC(=O)c2ccccc2N)c1	Active	1.26	1.26	2.16	1.26	Active	1.26	Active	Active	Active
CC(C)COC(=O)c1ccccc1N [ISOBUTYL 2-AMINOBENZOATE]	Active	1.51	0.59	1.79	1.06	Active	0.89	Active	Active	Active
Nc1ccccc1C(=O)Nc1ccc2ccccc2c1	Active	1.62	1.32	2.23	1.62	Active	1.32	Active	Active	Active
Nc1ccccc1C(=O)Nc1ccc(F)c(Cl)c1	Active	1.33	1.33	2.23	1.02	Active	1.33	Active	Active	Active
Nc1ccccc1C(=O)Nc1ccccc1F	Active	1.27	1.27	2.17	1.27	Active	1.27	Active	Active	Active

— ChEMBL document CHEMBL3046853, “Synthesis, antimicrobial evaluation, ot-QSAR and mt-QSAR studies of 2-amino benzoic acid derivatives” (2012)
